In patent publication US20120202819A1, “COMBINATION THERAPY USING A BETA 3 […] RECEPTOR AGONISTS AND AN […] AGENT” (Merck Sharp & Dohme Corporation, priority 2009, published 2012):
Like-named read-outs stand apart in the source and are kept apart here.

Tests used:
[1] = molecular target: T1, human β3 adrenergic receptor (Homo sapiens, UniProt P13945); assay: Functional assay: cAMP production in CHO cells transfected with cloned β-adrenergic receptor; type: cell-based
T1 construct: expressed in transfected cells; host or cells: Chinese hamster ovary (CHO) cells, stably transfected
T1 sequence (P13945 whole entry): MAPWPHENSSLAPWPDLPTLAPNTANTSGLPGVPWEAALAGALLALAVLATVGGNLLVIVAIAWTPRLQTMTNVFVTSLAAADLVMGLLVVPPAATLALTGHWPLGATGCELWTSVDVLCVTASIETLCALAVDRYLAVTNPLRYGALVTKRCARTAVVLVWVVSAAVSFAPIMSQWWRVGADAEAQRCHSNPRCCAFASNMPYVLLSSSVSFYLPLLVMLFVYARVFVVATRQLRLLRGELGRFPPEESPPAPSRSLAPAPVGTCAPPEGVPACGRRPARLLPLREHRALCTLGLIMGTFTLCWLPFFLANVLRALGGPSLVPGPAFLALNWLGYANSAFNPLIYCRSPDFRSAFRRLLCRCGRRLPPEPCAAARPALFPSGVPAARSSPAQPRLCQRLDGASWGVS
Experimental: Biological Assays for β3 Functional Activities: The following in vitro assays are suitable for screening compounds that have selective β3 agonist activity:
Functional Assay: cAMP production in response to ligand is measured according to Barton, et al. (1991, Agonist-induced desensitization of D2 dopamine receptors in human Y-79 retinoblastoma cells. Mol. Pharmacol. […]) modified as follows. cAMP production is measured using a homogenous time-resolved fluorescence resonance energy transfer immunoassay (LANCE™, Perkin Elmer) according to the manufacture's instructions. Chinese hamster ovary (CHO) cells, stably transfected with the cloned 13-adrenergic receptor (β1, β2 or β3) are harvested after 3 days of subculturing. Harvesting of cells is done with Enzyme-free Dissociation Media (Specialty Media). Cells are then counted and resuspended in assay buffer (Hank's Balanced salt solution supplemented with 5 mM HEPES, 0.1% BSA) containing a phosphodiesterase inhibitor (IBMX, 0.6 mM). The reaction is initiated by mixing 6,000 cells in 6 with 6 μL Alexa Fluor labeled cAMP antibody (LANCE™ kit) which is then added to an assay well containing 12 μL of compound (diluted in assay buffer to 2× final concentration). The reaction proceeds for 30 min at room temperature and is terminated by the addition of 24 detection buffer (LANCE™ kit). The assay plate is then incubated for 1 h at room temperature and time-resolved fluorescence measured on a Perkin Elmer Envision reader or equivalent. The unknown cAMP level is determined by comparing fluorescence levels to a cAMP standard curve.
The non-selective, full agonist 13-adrenergic ligand isoproterenol is used at all three receptors to determine maximal stimulation. The human β3 adrenergic receptor (AR) selective ligand (S)-N-[4-[2-[[2-hydroxy-3-(4-hydroxyphenoxy)propyl]amino]ethyl]-phenyl]-4-iodobenzenesulfonamide is used as a control in all assays. […] Data are analyzed using Microsoft Excel and Graphpad Prism or an internally developed data analysis software package.

[2] = tested on: EFS-induced isolated detrusor muscle contractions; assay: EFS-induced contraction of isolated rat detrusor muscle strips, with isobologram analysis; set-up: species or system Sprague-Dawley rats
Experimental: Male adult Sprague-Dawley rats were used. After euthanizing using CO2 gas, a whole bladder was removed. Longitudinal strips (about 6 mm×3 mm) of the extratrigonal portion of the detrusor muscle were prepared. […] The strips were tied at one end to the organ bath, and connected at the other end to an isometric transducer (AD Instruments) under a resting tension of 10 mN. The responses of the preparations were recorded at a sampling rate of 10 Hz by a multiple channel data acquisition system (PowerLab, AD Instruments), and measured with an analysis software (Chart, AD Instruments). After the equilibration period for at least 60 min, each tissue strip was challenged to electrical field stimulation (EFS) at 60 Hz; duration, 0.3 ms; 3 sec; 90 V to induce contractions. Upon obtaining stable contractions with EFS, compound solution (25 μL) was applied into organ bath in a cumulative manner. After 15 min of each compound treatment, EFS was applied.
Isobologram Analysis was used to evaluate the synergic effect of a combination therapy. Isobologram Analysis provides a visual assessment of the interaction of two different agents using independent statistical analysis. The statistical analysis can be accomplished from calculations of certain potency indices from single treatment of each compound and fixed-ratio combinations for the same effect.
Isobologram for some particular effect (e.g., 50% of the maximum) in which the dose of active agent A alone is A=20 and active agent B alone is B=100. The straight line connecting these intercept points (additivity line) is the locus of all dose pairs that, based on these potencies, should give the same effect, An actual dose pair such as point Q attains this effect with lesser quantities and is synergistic (or super-additive), while the dose pair denoted by point R means greater quantities are required and is therefore sub-additive.

bladder capacity = assay: Bladder capacity (cystometry) in anesthetized rhesus monkeys; type: in vivo, rhesus monkeys (Macaca mulatta); settings: mean of 4-6 animals
From the text: Adult female rhesus monkeys (Macaca mulatta) weighed 5.3-6.2 kg (4-7 year-old) were used. The subjects were either paired or individually housed on a 12-h light/12-h dark cycle (lights on at 7:00 AM). Their diet consisted of 2050 Teklad (Harlan Laboratories, Indianapolis, Ind.) and fresh fruit or vegetable. Water was freely available. All animals were observed daily by a veterinary technician and caretakers for signs of ill health. Subjects were repeatedly used with >13-day resting period. Monkeys were anesthetized with an intramuscular injection of either Telazol (3-5 mg/kg) or ketamine (10-20 mg/kg) followed by intravenous constant rate infusion with ketamine (0.2-0,8 mg/kg/min) using a syringe pump (552222, Harvard Apparatus, Holliston, Mass.). Animals were placed in a supine position and a triple lumen balloon transurethral catheter (7.4 Fr, Cook Medical, Bloomington, Ind.) was inserted into the bladder and the balloon was inflated with 1 mL of water to secure the tip of catheter at the bladder base. The catheter was connected with an infusion pump (Gemini PC-2TX, ALARIS Medical Systems, San Diego, Calif.) for bladder filling and a pressure transducer for intravesical pressure monitoring. Intravesical pressure was continuously recorded using a multiple channel data acquisition system (Power lab, AD Instruments, Biopac systems, Colorado Springs, Colo.) at a sampling rate of 20 Hz. After confirming bladder emptiness by an ultrasonography (Logiq e vet, GE Medical Systems, Waukesha, Wis., FIG. 1A), saline was intravesically infused at 15 mL/min. When the steep rise in pressure indicative of the micturition reflex was observed, intravesical infusion was stopped and the bladder was manually emptied with a 60 ml syringe.
After two baseline cystometry readings, drug was intravenously administered three times using a rising dose paradigm with a cystometry performed 10 min after each dose. Bladder capacity was measured for each cystometry and % change from the baseline capacity was calculated. As used herein, the term “baseline capacity” or “baseline” means the average bladder capacity from two pre-dose measurements.
The reported results are mean values of % change from baseline in 4-6 animals.

muscarinic receptor M4 = molecular target: T2, muscarinic receptor M4 (Homo sapiens, UniProt P08173); settings: Ohtake et al.; cited from earlier work
T2 sequence (P08173 1-479): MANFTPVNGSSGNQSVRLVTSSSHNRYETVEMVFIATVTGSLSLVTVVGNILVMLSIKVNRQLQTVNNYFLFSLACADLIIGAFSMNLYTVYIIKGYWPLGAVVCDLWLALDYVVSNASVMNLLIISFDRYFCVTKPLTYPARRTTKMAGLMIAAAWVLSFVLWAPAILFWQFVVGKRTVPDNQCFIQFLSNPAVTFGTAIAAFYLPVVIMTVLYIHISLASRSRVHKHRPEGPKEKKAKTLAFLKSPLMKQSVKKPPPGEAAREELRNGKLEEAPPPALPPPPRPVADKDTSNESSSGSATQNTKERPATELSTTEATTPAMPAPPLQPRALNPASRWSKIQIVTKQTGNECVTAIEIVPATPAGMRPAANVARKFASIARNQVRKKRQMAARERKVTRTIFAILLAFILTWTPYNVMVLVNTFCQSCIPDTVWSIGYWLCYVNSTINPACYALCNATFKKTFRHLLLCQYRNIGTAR

[3] = cAMP, CHO cells, read-out: human β3 functional activity
[4] = human β3 functional activity, read-out: HUMAN β3 BINDING

EC50 [1, 3] | EC50 [1, 4] | SMILES | also measured
1 to 10 nM |  | Nc1nc(CC(=O)Nc2ccc(CC3CC[C@H]([C@H](O)c4ccccc4)N3)cc2)cs1 (stereo partly drawn) [Compound 1, 2-(2-Amino-1,3-thiazol-4-yl)-N-[4-({(5R)-[(R)-hydroxy(phenyl)methyl]pyrrolidinyl}methyl)phenyl]acetamide] | 
1 to 10 nM |  | Nc1nc(CC(=O)Nc2ccc(C[C@@H]3CC[C@H]([C@H](O)c4ccccc4)N3)cc2)cs1 [Compound 2, 2-(2-Amino-1,3-thiazol-4-yl)-N-[4-({(2S, 5R)-[(R)-hydroxy(phenyl)methyl]pyrrolidinyl}methyl)phenyl]acetamide] | 
< 1 nM |  | Nc1nc2c(s1)CCC2C(=O)Nc1ccc(C[C@@H]2CC[C@H]([C@H](O)c3ccccc3)N2)cc1 (stereo partly drawn) [Compound 3] | 
 | 1 to 10 nM | O=C(Cn1cnc2ccccc2c1=O)Nc1ccc(C[C@@H]2CC[C@H]([C@H](O)c3ccccc3)N2)cc1 [Compound 4] | 
 | 1 to 10 nM | O=C(Cn1ncccc1=O)Nc1ccc(C[C@@H]2CC[C@H]([C@H](O)c3ccccc3)N2)cc1 [Compound 5] | 
 | 1 to 10 nM | Cc1cnn(CC(=O)Nc2ccc(C[C@@H]3CC[C@H]([C@H](O)c4ccccc4)N3)cc2)c(=O)c1 [Compound 6] | 
 | 1 to 10 nM | O=C(Cn1ncc2ccccc2c1=O)Nc1ccc(C[C@@H]2CC[C@H]([C@H](O)c3ccccc3)N2)cc1 [Compound 7] | 
 | 1 to 10 nM | O=C(Cn1cccnc1=O)Nc1ccc(C[C@@H]2CC[C@H]([C@H](O)c3ccccc3)N2)cc1 [Compound 8] | 
 | 1 to 10 nM | O=C(Cn1cnccc1=O)Nc1ccc(C[C@@H]2CC[C@H]([C@H](O)c3ccccc3)N2)cc1 [Compound 9] | 
 | 1 to 10 nM | O=C(Cn1ccccc1=O)Nc1ccc(C[C@@H]2CC[C@H]([C@H](O)c3ccccc3)N2)cc1 [Compound 10] | 
1 to 10 nM |  | Cc1ncn(C(C)C(=O)Nc2ccc(C[C@@H]3CC[C@H]([C@H](O)c4ccccc4)N3)cc2)n1 (stereo partly drawn) [Compound 11] | 
1 to 10 nM |  | O=C(Nc1ccc(C[C@@H]2CC[C@H]([C@H](O)c3ccccc3)N2)cc1)[C@@H]1CCc2cccc(=O)n21 [Compound 12, (3S)-N-[4-({(2S,5R)-5-[(R)-hydroxy(phenyl)methyl]pyrrolidin-2-yl}methyl)phenyl]-5-oxo-1,2,3,5-tetrahydroindolizine-3-carboxamide] | times less potent than CL316243 (IC25) ([2]; inhibiting EFS-induced contraction of rat bladder strips): ~100 times; IC25 (concentration which induced 25% inhibition of detrusor contraction) ([2]; single compound, rat bladder strips, EFS): 275 nM
< 1 nM |  | O=C(Nc1ccc(C[C@@H]2CC[C@H]([C@H](O)c3ccccc3)N2)cc1)[C@H]1CCc2cccc(=O)n21 [Compound 13, (3R)-N-[4-({(2S,5R)-5-[(R)-hydroxy(phenyl)methyl]pyrrolidin-2-yl}methyl)phenyl]-5-oxo-1,2,3,5-tetrahydroindolizine-3-carboxamide] | 
11 to 100 nM |  | O=C(Nc1ccc(C[C@@H]2CC[C@H]([C@H](O)c3ccccc3)N2)cc1)[C@@H]1CCc2nccc(=O)n21 [Compound 14, (6S)-N-[4-({(2S, 5R)-5-[(R)-hydroxy(phenyl)methyl]pyrrolidin-2-yl}methyl)phenyl]-4-oxo-4,6,7,8-tetrahydropyrrolo[1,2-α]pyrimidine-6-carboxamide] | Bladder capacity, % change from baseline (bladder capacity; mono-therapy 0.003 mg/kg iv): 4.1%; Bladder capacity, % change from baseline (bladder capacity; mono-therapy 0.003 mg/kg iv, listed as Cpd 14): 4.1%; Bladder capacity, % change from baseline (bladder capacity; mono-therapy 0.01 mg/kg iv): 18.0%; Bladder capacity, % change from baseline (bladder capacity; mono-therapy 0.03 mg/kg iv): 27.3%; Bladder capacity, % change from baseline (bladder capacity; mono-therapy 0.1 mg/kg iv): 33.9%; Bladder capacity, % change from baseline (bladder capacity; mono-therapy 0.3 mg/kg iv): 31%; Bladder capacity, % change from baseline (bladder capacity; mono-therapy 1 mg/kg iv): 55.9%
 |  | NC(=O)C(c1ccccc1)(c1ccccc1)[C@@H]1CCN(CCc2ccc3c(c2)CCO3)C1 [Darifenacin, (S)-2-[1-[2-(2,3-dihydrobenzofuran-5-yl)ethyl]pyrrolidin-3-yl]-2,2-diphenyl-acetamide] | Bladder capacity, % change from baseline (bladder capacity; mono-therapy 0.01 mg/kg iv): 8.9%; Bladder capacity, % change from baseline (bladder capacity; mono-therapy 0.03 mg/kg iv): 18.3%; Bladder capacity, % change from baseline (bladder capacity; mono-therapy 0.1 mg/kg iv): 29.4%; Ki (muscarinic receptor M4): 52 ± 15 nM
